Earlier results, collected in patent US5691323A, “Muscarine antagonists” (Merck & Co., Inc., priority 1995, dated 1997).

How the values were obtained:
[1] = background statement
axial elongation = settings: background
pupil = settings: background
[2] = tested on: smooth muscle (ordinarily called M3 type); settings: background

SMILES	Sensitization assay result [1]	Effect on axial elongation / enlargement of the eye (axial elongation)	Pupil dilation (mydriasis) (pupil)	Selectivity for smooth muscle (M3 type) receptors [2]
CN1CCN(CC(=O)N2c3ccccc3C(=O)Nc3cccnc32)CC1 [Pirenzepine]	positive	inhibits axial elongation	far less effective at pupil dilation than atropine	
CN1CCc2cccc3c2[C@H]1Cc1ccc(O)c(O)c1-3 [apomorphine]		inhibit or actually prevent the axial enlargement of the eye		
C[N+]1(C)CCC(OC(=O)C(c2ccccc2)c2ccccc2)CC1 [Example 4-DAMP, 4-diphenylacetoxy-N-methylpiperadine methiodide]				relatively selective antagonist for smooth muscle
CN1[C@@H]2CC[C@H]1C[C@@H](OC(=O)C(CO)c1ccccc1)C2 (stereo partly shown) [atropine]	positive		causes mydriasis	
